# ChEMBL document CHEMBL1201862, “PubChem BioAssay data set” (2004)
#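 Five concentrations, 48 hours, 96-well plates. GI50 marks 50% less growth.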 The source made the active and inactive calls. No stated cut-off is given here; in the data, active = GI50 up to about 1.1 µM and inactive = higher.
# What was measured:
# Assay in all cases: NCI tumour cell line growth inhibition, 48 h
# [1] = system: EKVX
# [2] = system: HT-29
# [3] = system: LOX IMVI
# [4] = system: SK-MEL-2
# [5] = system: RXF 393
# [6] = system: SR
# [7] = system: A549
# [8] = system: OVCAR-3
# [9] = system: Malme-3M
# [10] = system: Hs-578T
# [11] = system: M14
# [12] = system: NCI-H23
# [13] = system: NCI-H460
# [14] = system: MDA-MB-231
# [15] = system: SN12C
# [16] = system: OVCAR-5
# [17] = system: MDA-MB-435
# [18] = system: SW-620
# [19] = system: BT-549
# [20] = system: COLO 205
# [21] = system: RPMI-8226
# [22] = system: IGROV-1
# [23] = system: SF-539
# [24] = system: SK-MEL-5
# [25] = system: UACC-62
# [26] = system: TK-10
# [27] = system: CCRF-CEM
# [28] = system: NCI-H522
# [29] = system: ACHN
# [30] = system: A498
# [31] = system: HCT-15
# [32] = system: NCI-H226
# [33] = system: OVCAR-8
# [34] = system: KM12
# [35] = system: HCT-116
# [36] = system: SF-268
# [37] = system: SK-MEL-28
# [38] = system: DU-145
# [39] = system: MCF7
# [40] = system: SK-OV-3
# [41] = system: SF-295
# [42] = system: UACC-257
# [43] = system: K562
# [44] = system: SNB-19
# [45] = system: 786-0
# [46] = system: SNB-75
# [47] = system: HOP-92
# [48] = system: NCI/ADR-RES
# [49] = system: HL-60
# [50] = system: U-251
# [51] = system: OVCAR-4
# [52] = system: MDA-N
# [53] = system: HOP-62
# [54] = system: MOLT-4
# [55] = system: T47D
# [56] = system: PC-3
# [57] = system: UO-31
# [58] = system: CAKI-1
compound,measurement,setting,value
COc1ccc(CNC(C)C(=O)O)cc1 (centres undefined),GI50,[1],> 100 µM (inactive)
same,GI50,[2],> 100 µM (inactive)
same,GI50,[3],> 100 µM (inactive)
same,GI50,[4],> 100 µM (inactive)
same,GI50,[5],> 100 µM (inactive)
same,GI50,[6],> 100 µM (inactive)
same,GI50,[7],> 100 µM (inactive)
same,GI50,[8],> 100 µM (inactive)
same,GI50,[9],> 100 µM (inactive)
same,GI50,[10],> 100 µM (inactive)
same,GI50,[11],> 100 µM (inactive)
same,GI50,[12],> 100 µM (inactive)
same,GI50,[13],> 100 µM (inactive)
same,GI50,[14],> 100 µM (inactive)
same,GI50,[15],> 100 µM (inactive)
same,GI50,[16],> 100 µM (inactive)
same,GI50,[17],> 100 µM (inactive)
same,GI50,[18],> 100 µM (inactive)
same,GI50,[19],> 100 µM (inactive)
same,GI50,[20],> 100 µM (inactive)
same,GI50,[21],> 100 µM (inactive)
same,GI50,[22],> 100 µM (inactive)
same,GI50,[23],> 100 µM (inactive)
same,GI50,[24],> 100 µM (inactive)
same,GI50,[25],> 100 µM (inactive)
same,GI50,[26],> 100 µM (inactive)
same,GI50,[27],19.7 µM (inactive)
same,GI50,[28],> 100 µM (inactive)
same,GI50,[29],> 100 µM (inactive)
same,GI50,[30],> 100 µM (inactive)
same,GI50,[31],> 100 µM
same,GI50,[32],> 100 µM (inactive)
same,GI50,[33],> 100 µM (inactive)
same,GI50,[34],> 100 µM (inactive)
same,GI50,[35],> 100 µM (inactive)
same,GI50,[36],> 100 µM (inactive)
same,GI50,[37],> 100 µM (inactive)
same,GI50,[38],> 100 µM (inactive)
same,GI50,[39],> 100 µM (inactive)
same,GI50,[40],> 100 µM (inactive)
same,GI50,[41],> 100 µM (inactive)
same,GI50,[42],> 100 µM (inactive)
same,GI50,[43],> 100 µM (inactive)
same,GI50,[44],> 100 µM (inactive)
same,GI50,[45],> 100 µM (inactive)
same,GI50,[46],> 100 µM (inactive)
same,GI50,[47],> 100 µM (inactive)
same,GI50,[48],> 100 µM (inactive)
same,GI50,[49],> 100 µM (inactive)
same,GI50,[50],> 100 µM (inactive)
same,GI50,[51],> 100 µM (inactive)
same,GI50,[52],> 100 µM (inactive)
same,GI50,[53],> 100 µM (inactive)
same,GI50,[54],> 100 µM (inactive)
same,GI50,[55],> 100 µM (inactive)
same,GI50,[56],> 100 µM (inactive)
same,GI50,[57],> 100 µM (inactive)
same,GI50,[58],> 100 µM (inactive)
CCOC(=O)Nc1ccc(S(=O)(=O)Nc2ccc(Br)cc2)cc1,GI50,[1],29.2 µM (inactive)
same,GI50,[2],33.2 µM (inactive)
same,GI50,[3],26.4 µM (inactive)
same,GI50,[4],47.1 µM (inactive)
same,GI50,[5],22 µM (inactive)
same,GI50,[6],18.2 µM (inactive)
same,GI50,[7],60.1 µM (inactive)
same,GI50,[8],36.3 µM (inactive)
same,GI50,[9],74 µM (inactive)
same,GI50,[10],30.6 µM (inactive)
same,GI50,[11],49.3 µM (inactive)
same,GI50,[12],31 µM (inactive)
same,GI50,[13],23.2 µM (inactive)
same,GI50,[14],29.7 µM (inactive)
same,GI50,[15],59.8 µM (inactive)
same,GI50,[16],58.1 µM (inactive)
same,GI50,[17],43.5 µM (inactive)
same,GI50,[18],24.3 µM (inactive)
same,GI50,[19],35.1 µM (inactive)
same,GI50,[20],14.6 µM (inactive)
same,GI50,[21],25.1 µM (inactive)
same,GI50,[22],35 µM (inactive)
same,GI50,[23],17.2 µM (inactive)
same,GI50,[24],18.5 µM (inactive)
same,GI50,[25],22.4 µM (inactive)
same,GI50,[26],43.1 µM (inactive)
same,GI50,[27],46.8 µM (inactive)
same,GI50,[28],29 µM (inactive)
same,GI50,[29],30.1 µM (inactive)
same,GI50,[30],13.6 µM (inactive)
same,GI50,[31],61.5 µM
same,GI50,[33],23.3 µM (inactive)
same,GI50,[34],37.3 µM (inactive)
same,GI50,[35],39.7 µM (inactive)
same,GI50,[36],28.2 µM (inactive)
same,GI50,[37],39.8 µM (inactive)
same,GI50,[38],65.5 µM (inactive)
same,GI50,[39],23.3 µM (inactive)
same,GI50,[40],25.9 µM (inactive)
same,GI50,[41],30.9 µM (inactive)
same,GI50,[42],61.4 µM (inactive)
same,GI50,[43],17.3 µM (inactive)
same,GI50,[44],73.5 µM (inactive)
same,GI50,[45],36.8 µM (inactive)
same,GI50,[47],43.7 µM (inactive)
same,GI50,[48],34.4 µM (inactive)
same,GI50,[49],25.6 µM (inactive)
same,GI50,[50],43 µM (inactive)
same,GI50,[51],13.6 µM (inactive)
same,GI50,[52],37 µM (inactive)
same,GI50,[53],33.5 µM (inactive)
same,GI50,[54],26.9 µM (inactive)
same,GI50,[55],31.5 µM (inactive)
same,GI50,[56],41 µM (inactive)
same,GI50,[57],34.8 µM (inactive)
same,GI50,[58],35.8 µM (inactive)
